From PubChem BioAssay (NCI) come the findings set out here.

Structures are written as SMILES. Several values for one entry are separate records, joined by “and”; a condition that tells them apart may be missing. Identical values can stand only once.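 Protocol summary: plate cells (96-well), add compound at 5 concentrations, incubate 48 h, interpolate endpoints linearly. The concentration for 50% growth inhibition is given as GI50. At the TGI there is no net growth.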 A value given as a limit tells only on which side of the number the result lay.

Some test systems named below: SN12C renal; MDA-MB-435; UACC-62 melanoma; RXF 393 renal; 786-0 renal; U251 CNS; K-562 leukemia; SR leukemia; HOP-62 NSCLC; SF-295 CNS.
What all share (assay): DTP human tumour cell line panel, 48 h

One may read the GI50 as the concentration at which growth is held to half of that of the control. A word on the TGI: it is the concentration giving total growth inhibition.

On to `Cc1c2ncccc2c(C)c2c1[nH]c1ccc(O)cc12`, for which the GI50 is 5.99 µM and 5.39 µM in the experiment with SN12C renal; 7.92 µM in the experiment with UACC-62 melanoma; 10.7 µM in the experiment with RXF 393 renal; 5.25 µM with 786-0 renal; 9.94 µM and 4.34 µM with U251 CNS; 5.04 µM in the experiment on K-562 leukemia. Further, the GI50 with SR leukemia is 2.91 µM and 2.48 µM; with HOP-62 NSCLC, 4.01 µM and 5.07 µM; with SF-295 CNS it was 4.53 µM. Moreover, the TGI was 14.2 µM and 42.5 µM with SN12C renal; 20.9 µM in the experiment with MDA-MB-435; 27.1 µM and 21.1 µM in the experiment with UACC-62 melanoma; 9.81 µM and 43 µM in the experiment on RXF 393 renal; 15.6 µM and 11.6 µM in the experiment with 786-0 renal; 13.9 µM and 21.6 µM with U251 CNS. Moreover, the TGI is 20.9 µM and 50.4 µM in the experiment on K-562 leukemia; 7.31 µM and 18.9 µM in the experiment on SR leukemia; 10.8 µM and 59.5 µM in the experiment on HOP-62 NSCLC; 10.3 µM with SF-295 CNS.

On to `O=C1CCCSCCCC(=O)CCCSCCC1`, for which the TGI in the experiment on SN12C renal, in the experiment on MDA-MB-435, with UACC-62 melanoma, in the experiment on 786-0 renal, with U251 CNS and with K-562 leukemia was more than 100 µM in each case. Moreover, the TGI in the experiment with SR leukemia, in the experiment on HOP-62 NSCLC and in the experiment on SF-295 CNS was more than 100 µM throughout.

Regarding `Clc1ccc(Nc2ccnc(NCCNc3ccnc4cc(Cl)ccc34)n2)cc1`, the GI50 in the experiment with SN12C renal was 1.51 µM; with MDA-MB-435 it was 1.37 µM; in the experiment with UACC-62 melanoma it was 1.69 µM; in the experiment on 786-0 renal it was 1.62 µM; in the experiment with U251 CNS, 1.33 µM; in the experiment with K-562 leukemia, 0.501 µM. In addition, the GI50 in the experiment with SR leukemia is 1.39 µM; in the experiment on HOP-62 NSCLC it was 1.27 µM; in the experiment with SF-295 CNS, 1.16 µM. In addition, the total growth inhibition concentration (TGI) stood at 3.47 µM in the experiment on SN12C renal; 2.68 µM in the experiment with MDA-MB-435; 3.17 µM with UACC-62 melanoma; 3.44 µM in the experiment on 786-0 renal; 2.67 µM in the experiment with U251 CNS; 1.87 µM in the experiment with K-562 leukemia. The TGI with SR leukemia came out at 3.43 µM; in the experiment with HOP-62 NSCLC it was 2.66 µM; with SF-295 CNS, 2.42 µM.

`COc1cc2c3c(n(CCCO)c(=O)c2cc1OC)-c1cc2c(cc1C3=O)OCO2`: the GI50 in the experiment with SN12C renal is 3.53 µM; in the experiment on MDA-MB-435, 31.4 µM; in the experiment on UACC-62 melanoma, 2.45 µM; in the experiment on RXF 393 renal, 27.1 µM; in the experiment on 786-0 renal, 2.46 µM; in the experiment with U251 CNS it was 2.63 µM. Moreover, the GI50 in the experiment with K-562 leukemia was 6.96 µM; in the experiment on HOP-62 NSCLC, 4.28 µM; in the experiment on SF-295 CNS it was 1.17 µM. For the same compound, the TGI is more than 54.3 µM in the experiment with SN12C renal; more than 100 µM in the experiment with MDA-MB-435; 25.3 µM in the experiment with UACC-62 melanoma; more than 94.6 µM with RXF 393 renal; 10.1 µM in the experiment with 786-0 renal; 27.8 µM with U251 CNS. For the same compound, the TGI was more than 47 µM in the experiment on K-562 leukemia, 78.3 µM with HOP-62 NSCLC and more than 48.3 µM in the experiment on SF-295 CNS.

Consider `COc1ccc(/C=C/C(=O)/C=C(/C=C/c2ccc(OC)c(OC)c2)OB(F)F)cc1OC`, for which the GI50 was 0.522 µM in the experiment with MDA-MB-435; 0.574 µM in the experiment on UACC-62 melanoma; 0.34 µM in the experiment with RXF 393 renal; 1.07 µM in the experiment on 786-0 renal; 0.807 µM with U251 CNS; 0.463 µM in the experiment with K-562 leukemia. Besides, the GI50 in the experiment on SR leukemia was 0.287 µM; in the experiment on HOP-62 NSCLC, 2.46 µM; in the experiment on SF-295 CNS it was 1.89 µM. In addition, the TGI in the experiment with MDA-MB-435 is 3.89 µM; in the experiment with UACC-62 melanoma it was 2.16 µM; in the experiment on RXF 393 renal it was 1.31 µM; in the experiment on 786-0 renal, 2.93 µM; in the experiment with U251 CNS, 2.31 µM; in the experiment on K-562 leukemia it was more than 100 µM. For the same compound, the concentration for total growth inhibition (TGI) in the experiment on SR leukemia was 1.69 µM; in the experiment on HOP-62 NSCLC, 7.05 µM; in the experiment with SF-295 CNS it was 4.87 µM.

Turning to `COc1cccc2c(Nc3ccc(C(=O)NCCNCCO)cc3)cc(-c3ccccc3)nc12`, the GI50 is 34.3 µM in the experiment on SN12C renal; 27.8 µM in the experiment on MDA-MB-435; 62.4 µM in the experiment on UACC-62 melanoma; 33.1 µM in the experiment with RXF 393 renal; 33.5 µM with 786-0 renal; 5.89 µM with U251 CNS. The GI50 with K-562 leukemia is 22.3 µM; in the experiment with HOP-62 NSCLC, 35.4 µM; with SF-295 CNS, 40.9 µM. Further, the TGI is more than 100 µM with SN12C renal; 75.5 µM with MDA-MB-435; more than 100 µM in the experiment with UACC-62 melanoma; 93.1 µM in the experiment with RXF 393 renal; more than 100 µM in the experiment on 786-0 renal; 24.9 µM with U251 CNS. In addition, the values for the TGI with K-562 leukemia, in the experiment on HOP-62 NSCLC and in the experiment on SF-295 CNS were 64.9 µM, more than 100 µM and more than 100 µM, respectively.

With `N#Cc1c2ccccc2c2nnc3cc(C(F)(F)F)ccc3n12`, the GI50 is 31.4 µM with MDA-MB-435; more than 100 µM with 786-0 renal; 51.2 µM with U251 CNS; 48.3 µM with K-562 leukemia; 31.3 µM in the experiment with SR leukemia; 27.6 µM with HOP-62 NSCLC. In the experiment on SF-295 CNS, the GI50 was 96.3 µM. The TGI was more than 100 µM in the experiment on MDA-MB-435; more than 100 µM in the experiment on 786-0 renal; more than 100 µM with U251 CNS; more than 100 µM in the experiment on K-562 leukemia; more than 100 µM in the experiment on SR leukemia; 58.3 µM in the experiment with HOP-62 NSCLC. In the experiment with SF-295 CNS, this compound yielded a TGI of more than 100 µM.

As to `O=C(O)C(Cc1ccccc1-c1ccccc1)C(=O)O`, the TGI in the experiment with SN12C renal, in the experiment on MDA-MB-435, in the experiment on UACC-62 melanoma, in the experiment on RXF 393 renal, with 786-0 renal and with U251 CNS was more than 100 µM throughout. Besides, the TGI with K-562 leukemia, in the experiment with SR leukemia and in the experiment with SF-295 CNS was more than 100 µM in each case.

Consider `Cc1cc(S(=O)(=O)Nc2nnc(-c3ccco3)c(-c3ccco3)n2)c(SCc2ccccc2)cc1Cl`, for which the GI50 in the experiment with MDA-MB-435 was 25.4 µM; with UACC-62 melanoma, 19.4 µM; in the experiment with RXF 393 renal it was 22.8 µM; with 786-0 renal it was 38.8 µM; in the experiment with U251 CNS, 25.7 µM; in the experiment with K-562 leukemia, 28.2 µM. Also, the results for the GI50 in the experiment with SR leukemia, in the experiment with HOP-62 NSCLC and in the experiment on SF-295 CNS were 19.4 µM, 25.5 µM and 29.2 µM, respectively. Besides, the TGI was 49.6 µM with MDA-MB-435; 37.2 µM in the experiment with UACC-62 melanoma; 47.6 µM with RXF 393 renal; more than 100 µM with 786-0 renal; 62.2 µM with U251 CNS; more than 100 µM in the experiment on K-562 leukemia. Further, the values for the TGI in the experiment with SR leukemia, in the experiment with HOP-62 NSCLC and in the experiment with SF-295 CNS were 40 µM, 53.3 µM and 83.9 µM, respectively.
